Tests used:
blackgrass [1] = experiment: Test Example 4: herbicidal effect by soil treatment (Table 19, symbol J); type: in vivo, blackgrass (Alopecurus myosuroides); conditions: amount of applied herbicide 320 g/ha
Method in brief: (§1)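 Three weeks of greenhouse growth at 25° C. to 30° C. followed a uniform surface spray of water-diluted emulsion at a predetermined herbicide amount. Seeds had been sown beforehand under about 1.5 cm of sterilized diluvial soil. Grading followed criteria set out in an earlier test.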

barnyard grass [2] = experiment: Test Example 3: herbicidal effect by foliage application, Wagner pot (Table 18, symbol H); type: in vivo, barnyard grass (Echinochloa crus-galli); conditions: amount of applied herbicide 320 g/ha
Method in brief: (§2)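 Plants were sown in alluvial soil held under 0.1–0.5 cm standing water and grown 14 days in a greenhouse at 25–30 °C. An emulsifiable formulation, water-diluted to the set dose, was then sprayed onto the foliage, and effects were scored three weeks later using previously defined criteria.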

blackgrass [3] = experiment: Test Example 5: herbicidal effect by foliage application, plastic box (Table 20, symbol J); type: in vivo, blackgrass (Alopecurus myosuroides); conditions: foliage application
Method in brief: (§3)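 Plants sown in sterilized diluvial soil and grown 14 days in a greenhouse at 25° C to 30° C, then sprayed on the foliage with the compound's emulsion diluted in water to a predetermined herbicide amount. Injury to weeds and crops scored three weeks after application on a visual rating scale.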

windgrass [4] = experiment: Test Example 4: herbicidal effect by soil treatment (Table 19, symbol L); type: in vivo, windgrass (Apera spica-venti); conditions: amount of applied herbicide 320 g/ha
Method in brief: as §1

chickweed [5] = experiment: Test Example 4: herbicidal effect by soil treatment (Table 19, symbol P); type: in vivo, common chickweed (Stellaria media); conditions: amount of applied herbicide 320 g/ha
Method in brief: as §1

barnyard grass [6] = experiment: Test Example 4: herbicidal effect by soil treatment (Table 19, symbol H); type: in vivo, barnyard grass (Echinochloa crus-galli); conditions: amount of applied herbicide 320 g/ha
Method in brief: as §1

windgrass [7] = experiment: Test Example 5: herbicidal effect by foliage application, plastic box (Table 20, symbol L); type: in vivo, windgrass (Apera spica-venti); conditions: foliage application
Method in brief: as §3

southern crabgrass [8] = experiment: Test Example 4: herbicidal effect by soil treatment (Table 19, symbol F); type: in vivo, southern crabgrass (Digitaria ciliaris); conditions: amount of applied herbicide 320 g/ha
Method in brief: as §1

southern crabgrass [9] = experiment: Test Example 5: herbicidal effect by foliage application, plastic box (Table 20, symbol F); type: in vivo, southern crabgrass (Digitaria ciliaris); conditions: foliage application
Method in brief: as §3

velvetleaf [10] = experiment: Test Example 5: herbicidal effect by foliage application, plastic box (Table 20, symbol M); type: in vivo, velvetleaf (Abutilon theophrasti); conditions: foliage application
Method in brief: as §3

late watergrass = experiment: Test Example 1: herbicidal activity, application before weed generation under submerged conditions (Table 16, symbol A); type: in vivo, late watergrass (Echinochloa oryzicola); conditions: amount of applied herbicide 320 g/ha
Method in brief: (§4)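 Alluvial soil was flooded to 4 cm depth, weed seeds were sown mixed and 2.5-leaf rice seedlings were transplanted. On sowing day, the compound's emulsion, diluted in water to a set dose, was applied to the water surface. Plants grew at 25–30 °C and were scored 0–5 after three weeks.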

Italian ryegrass [11] = experiment: Test Example 5: herbicidal effect by foliage application, plastic box (Table 20, symbol K); type: in vivo, Italian ryegrass (Lolium multiflorum); conditions: foliage application
Method in brief: as §3

persian speedwell [12] = experiment: Test Example 5: herbicidal effect by foliage application, plastic box (Table 20, symbol R); type: in vivo, Persian speedwell (Veronica persica); conditions: foliage application
Method in brief: as §3

green foxtail [13] = experiment: Test Example 4: herbicidal effect by soil treatment (Table 19, symbol G); type: in vivo, green foxtail (Setaria viridis); conditions: amount of applied herbicide 320 g/ha
Method in brief: as §1

redroot pigweed [14] = experiment: Test Example 4: herbicidal effect by soil treatment (Table 19, symbol N); type: in vivo, redroot pigweed (Amaranthus retroflexus); conditions: amount of applied herbicide 320 g/ha
Method in brief: as §1

Japanese bulrush = experiment: Test Example 1: herbicidal activity, application before weed generation under submerged conditions (Table 16, symbol B); type: in vivo, Japanese bulrush (Schoenoplectus juncoides); conditions: amount of applied herbicide 320 g/ha
Method in brief: as §4

chickweed [15] = experiment: Test Example 5: herbicidal effect by foliage application, plastic box (Table 20, symbol P); type: in vivo, common chickweed (Stellaria media); conditions: foliage application
Method in brief: as §3

barnyard grass [16] = experiment: Test Example 5: herbicidal effect by foliage application, plastic box (Table 20, symbol H); type: in vivo, barnyard grass (Echinochloa crus-galli); conditions: foliage application
Method in brief: as §3

lambsquarters [17] = experiment: Test Example 4: herbicidal effect by soil treatment (Table 19, symbol O); type: in vivo, lambsquarters (Chenopodium album); conditions: amount of applied herbicide 320 g/ha
Method in brief: as §1

Chinese sprangletop = experiment: Test Example 3: herbicidal effect by foliage application, Wagner pot (Table 18, symbol D); type: in vivo, chinese sprangletop (Leptochloa chinensis); conditions: amount of applied herbicide 320 g/ha
Method in brief: as §2

velvetleaf [18] = experiment: Test Example 4: herbicidal effect by soil treatment (Table 19, symbol M); type: in vivo, velvetleaf (Abutilon theophrasti); conditions: amount of applied herbicide 320 g/ha
Method in brief: as §1

persian speedwell [19] = experiment: Test Example 4: herbicidal effect by soil treatment (Table 19, symbol R); type: in vivo, Persian speedwell (Veronica persica); conditions: amount of applied herbicide 320 g/ha
Method in brief: as §1

Italian ryegrass [20] = experiment: Test Example 4: herbicidal effect by soil treatment (Table 19, symbol K); type: in vivo, Italian ryegrass (Lolium multiflorum); conditions: amount of applied herbicide 320 g/ha
Method in brief: as §1

rice flat sedge = experiment: Test Example 3: herbicidal effect by foliage application, Wagner pot (Table 18, symbol E); type: in vivo, rice flat sedge (Cyperus iria); conditions: amount of applied herbicide 320 g/ha
Method in brief: as §2

oval-leafed pondweed = experiment: Test Example 1: herbicidal activity, application before weed generation under submerged conditions (Table 16, symbol C); type: in vivo, oval-leafed pondweed (Monochoria vaginalis); conditions: amount of applied herbicide 320 g/ha
Method in brief: as §4

green foxtail [21] = experiment: Test Example 5: herbicidal effect by foliage application, plastic box (Table 20, symbol G); type: in vivo, green foxtail (Setaria viridis); conditions: foliage application
Method in brief: as §3

lambsquarters [22] = experiment: Test Example 5: herbicidal effect by foliage application, plastic box (Table 20, symbol O); type: in vivo, lambsquarters (Chenopodium album); conditions: foliage application
Method in brief: as §3

redroot pigweed [23] = experiment: Test Example 5: herbicidal effect by foliage application, plastic box (Table 20, symbol N); type: in vivo, redroot pigweed (Amaranthus retroflexus); conditions: foliage application
Method in brief: as §3

wild oat [24] = experiment: Test Example 4: herbicidal effect by soil treatment (Table 19, symbol I); type: in vivo, wild oat (Avena fatua); conditions: amount of applied herbicide 320 g/ha
Method in brief: as §1

wild oat [25] = experiment: Test Example 5: herbicidal effect by foliage application, plastic box (Table 20, symbol I); type: in vivo, wild oat (Avena fatua); conditions: foliage application
Method in brief: as §3

[26] = AAH 320 g/ha, evaluated three weeks after application
[27] = 320 g/ha, three weeks after application

SMILES	herbicidal effect, J: blackgrass (blackgrass [1])	herbicidal effect on H: barnyard grass (barnyard grass [2])	herbicidal effect, L: windgrass (windgrass [4])	herbicidal effect, P: chickweed (chickweed [5])	herbicidal effect, H: barnyard grass (barnyard grass [6])	herbicidal effect, F: southern crabgrass (southern crabgrass [8])	Herbicidal effect, A: late watergrass (late watergrass)	herbicidal effect, G: green foxtail (green foxtail [13])	herbicidal effect, N: redroot pigweed (redroot pigweed [14])	Herbicidal effect, B: Japanese bulrush (Japanese bulrush)	herbicidal effect, O: lambsquarters (lambsquarters [17])	herbicidal effect on D: Chinese sprangletop (Chinese sprangletop)	herbicidal effect, M: velvetleaf (velvetleaf [18])	herbicidal effect, R: persian speedwell (persian speedwell [19])	herbicidal effect, K: Italian ryegrass (Italian ryegrass [20])	herbicidal effect on E: rice flat sedge (rice flat sedge)	Herbicidal effect, C: oval-leafed pondweed (oval-leafed pondweed)	herbicidal effect, I: wild oat (wild oat [24])	further results
Cc1nn(C)c(=O)c(-c2c(-c3ccc(Cl)s3)sc3ccc(F)cc23)c1O [2-390]	5 (Herbicidal rate of 90% or more (almost completely withered))	5 (Herbicidal rate of 90% or more (almost completely withered))	4 (Herbicidal rate of 70% or more and less than 90%)	4 (Herbicidal rate of 70% or more and less than 90%)	5 (Herbicidal rate of 90% or more (almost completely withered))	4 (Herbicidal rate of 70% or more and less than 90%)	2 (Herbicidal rate of 20% or more and less than 40%)	5 (Herbicidal rate of 90% or more (almost completely withered))	5 (Herbicidal rate of 90% or more (almost completely withered))	0 (Herbicidal rate of 5% or less (almost no effect))	4 (Herbicidal rate of 70% or more and less than 90%)	3 (Herbicidal rate of 40% or more and less than 70%)	3 (Herbicidal rate of 40% or more and less than 70%)	5 (Herbicidal rate of 90% or more (almost completely withered))	5 (Herbicidal rate of 90% or more (almost completely withered))	5 (Herbicidal rate of 90% or more (almost completely withered))	0 (Herbicidal rate of 5% or less (almost no effect))	1 (Herbicidal rate of 5% or more and less than 20%)	J: blackgrass, herbicidal effect (criteria 0-5) (blackgrass [3]; [26]): 4 (Herbicidal rate of 70% or more and less than 90%); L: windgrass, herbicidal effect (criteria 0-5) (windgrass [7]; [26]): 5 (Herbicidal rate of 90% or more (almost completely withered)); F: southern crabgrass, herbicidal effect (criteria 0-5) (southern crabgrass [9]; [26]): 5 (Herbicidal rate of 90% or more (almost completely withered)); M: velvetleaf, herbicidal effect (criteria 0-5) (velvetleaf [10]; [26]): 5 (Herbicidal rate of 90% or more (almost completely withered)); K: Italian ryegrass, herbicidal effect (criteria 0-5) (Italian ryegrass [11]; [26]): 5 (Herbicidal rate of 90% or more (almost completely withered)); R: persian speedwell, herbicidal effect (criteria 0-5) (persian speedwell [12]; [26]): 5 (Herbicidal rate of 90% or more (almost completely withered)); P: chickweed, herbicidal effect (criteria 0-5) (chickweed [15]; [26]): 5 (Herbicidal rate of 90% or more (almost completely withered)); H: barnyard grass, herbicidal effect (criteria 0-5) (barnyard grass [16]; [26]): 4 (Herbicidal rate of 70% or more and less than 90%); G: green foxtail, herbicidal effect (criteria 0-5) (green foxtail [21]; [26]): 5 (Herbicidal rate of 90% or more (almost completely withered)); O: lambsquarters, herbicidal effect (criteria 0-5) (lambsquarters [22]; [26]): 5 (Herbicidal rate of 90% or more (almost completely withered)); N: redroot pigweed, herbicidal effect (criteria 0-5) (redroot pigweed [23]; [26]): 5 (Herbicidal rate of 90% or more (almost completely withered)); I: wild oat, herbicidal effect (criteria 0-5) (wild oat [25]; [26]): 4 (Herbicidal rate of 70% or more and less than 90%)
COc1ccccc1-c1sc2cc(F)ccc2c1-c1c(OC(=O)COc2ccccc2)c(C)nn(C)c1=O [3-021]	4 (Herbicidal rate of 70% or more and less than 90%)	5 (Herbicidal rate of 90% or more (almost completely withered))	3 (Herbicidal rate of 40% or more and less than 70%)	3 (Herbicidal rate of 40% or more and less than 70%)	4 (Herbicidal rate of 70% or more and less than 90%)	3 (Herbicidal rate of 40% or more and less than 70%)	3 (Herbicidal rate of 40% or more and less than 70%)	4 (Herbicidal rate of 70% or more and less than 90%)	4 (Herbicidal rate of 70% or more and less than 90%)	3 (Herbicidal rate of 40% or more and less than 70%)	4 (Herbicidal rate of 70% or more and less than 90%)	3 (Herbicidal rate of 40% or more and less than 70%)	0 (Herbicidal rate of 5% or less (almost no effect))	4 (Herbicidal rate of 70% or more and less than 90%)	4 (Herbicidal rate of 70% or more and less than 90%)	5 (Herbicidal rate of 90% or more (almost completely withered))	4 (Herbicidal rate of 70% or more and less than 90%)	1 (Herbicidal rate of 5% or more and less than 20%)	J: blackgrass, herbicidal effect grade (blackgrass [3]; [27]): 4 (Herbicidal rate of 70% or more and less than 90%); L: windgrass, herbicidal effect grade (windgrass [7]; [27]): 5 (Herbicidal rate of 90% or more (almost completely withered)); F: southern crabgrass, herbicidal effect grade (southern crabgrass [9]; [27]): 4 (Herbicidal rate of 70% or more and less than 90%); M: velvetleaf, herbicidal effect grade (velvetleaf [10]; [27]): 5 (Herbicidal rate of 90% or more (almost completely withered)); K: Italian ryegrass, herbicidal effect grade (Italian ryegrass [11]; [27]): 4 (Herbicidal rate of 70% or more and less than 90%); R: persian speedwell, herbicidal effect grade (persian speedwell [12]; [27]): 4 (Herbicidal rate of 70% or more and less than 90%); P: chickweed, herbicidal effect grade (chickweed [15]; [27]): 5 (Herbicidal rate of 90% or more (almost completely withered)); H: barnyard grass, herbicidal effect grade (barnyard grass [16]; [27]): 5 (Herbicidal rate of 90% or more (almost completely withered)); G: green foxtail, herbicidal effect grade (green foxtail [21]; [27]): 5 (Herbicidal rate of 90% or more (almost completely withered)); O: lambsquarters, herbicidal effect grade (lambsquarters [22]; [27]): 5 (Herbicidal rate of 90% or more (almost completely withered)); N: redroot pigweed, herbicidal effect grade (redroot pigweed [23]; [27]): 5 (Herbicidal rate of 90% or more (almost completely withered)); I: wild oat, herbicidal effect grade (wild oat [25]; [27]): 4 (Herbicidal rate of 70% or more and less than 90%)
